For this experiment, the system named is MV-4-11 cells. The experiment is described as follows: Gene expression microarray analysis (Affymetrix PrimeView) and GSEA. Format: cell-based, human. Details: RFU PODN (11730768_x_at) / Fold change /veh PODN (11730768_x_at) / RFU LINC00158 (11744669_a_at) / Fold change /veh LINC00158 (11744669_a_at) / RFU DUSP10 (11751237_a_at) / Fold change /veh DUSP10 (11751237_a_at) / RFU ID3 (11757404_x_at) / Fold change /veh ID3 (11757404_x_at) / RFU PLEKHG5 (11737974_s_at) / Fold change /veh PLEKHG5 (11737974_s_at) / RFU LRRC4B (11730491_at) / Fold change /veh LRRC4B (11730491_at) / RFU GIMAP4 (11747438_a_at) / Fold change /veh GIMAP4 (11747438_a_at) / RFU KRT8 (11758183_x_at) / Fold change /veh KRT8 (11758183_x_at) / RFU CNN1 (11734310_a_at) / Fold change /veh CNN1 (11734310_a_at) / RFU VPS37D (11726825_at) / Fold change /veh VPS37D (11726825_at) / RFU C10orf10 (11716522_x_at) / Fold change /veh C10orf10 (11716522_x_at) / RFU KIR2DL2 /// KIR2DL4 /// KIR2DL5A /// KIR2DL5B /// KIR2DS1 /// KIR2DS2 /// KIR2DS3 /// KIR2DS4 /// KIR3DL3 /// KIR3DL3 /// KIR3DS1 (11738374_at) / Fold change /veh KIR2DL2 /// KIR2DL4 /// KIR2DL5A /// KIR2DL5B /// KIR2DS1 /// KIR2DS2 /// KIR2DS3 /// KIR2DS4 /// KIR3DL3 /// KIR3DL3 /// KIR3DS1 (11738374_at) / RFU C1QL1 (11718748_at) / Fold change /veh C1QL1 (11718748_at) / RFU TMPRSS4 (11747572_a_at) / Fold change /veh TMPRSS4 (11747572_a_at) / RFU HAMP (11756126_x_at) / Fold change /veh HAMP (11756126_x_at) / RFU RNFT2 (11725882_a_at) / Fold change /veh RNFT2 (11725882_a_at) / RFU NR4A2 (11747474_a_at) / Fold change /veh NR4A2 (11747474_a_at) / RFU ABCC12 (11746883_a_at) / Fold change /veh ABCC12 (11746883_a_at) / RFU TMEM136 (11760407_x_at) / Fold change /veh TMEM136 (11760407_x_at) / RFU CLDN22 /// WWC2 (11732394_at) / Fold change /veh CLDN22 /// WWC2 (11732394_at) / RFU HLA-DPB1 (11760878_x_at) / Fold change /veh HLA-DPB1 (11760878_x_at) / RFU SPINT1 (11716480_a_at) / Fold change /veh SPINT1 (11716480_a_at) / RFU GAP43 (11754022_s_at) / Fold change /veh GAP43 (11754022_s_at) / RFU A4GNT (11735810_at) / Fold change /veh A4GNT (11735810_at) / RFU PRB3 (11715151_x_at) / Fold change /veh PRB3 (11715151_x_at) / RFU TUBB4B (11761932_at) / Fold change /veh TUBB4B (11761932_at) / RFU CAPN14 (11732068_a_at) / Fold change /veh CAPN14 (11732068_a_at) / RFU TMCC2 (11721928_a_at) / Fold change /veh TMCC2 (11721928_a_at) / RFU IRGQ (11745062_a_at) / Fold change /veh IRGQ (11745062_a_at) / RFU FAM174B (11720279_a_at) / Fold change /veh FAM174B (11720279_a_at) / RFU TMPRSS4 (11748680_a_at) / Fold change /veh TMPRSS4 (11748680_a_at) / RFU FAM212B (11763350_a_at) / Fold change /veh FAM212B (11763350_a_at) / RFU PLEKHG5 (11743358_a_at) / Fold change /veh PLEKHG5 (11743358_a_at) / RFU ZSCAN30 (11745921_a_at) / Fold change /veh ZSCAN30 (11745921_a_at) / RFU CMKLR1 (11741424_a_at) / Fold change /veh CMKLR1 (11741424_a_at) / RFU LOC101060620 /// MAPK8IP1 (11723275_at) / Fold change /veh LOC101060620 /// MAPK8IP1 (11723275_at) / RFU SPTSSB (11747773_x_at) / Fold change /veh SPTSSB (11747773_x_at) / RFU PRSS12 (11739890_at) / Fold change /veh PRSS12 (11739890_at) / RFU BIN1 (11741810_x_at) / Fold change /veh BIN1 (11741810_x_at) / RFU WNT11 (11732464_a_at) / Fold change /veh WNT11 (11732464_a_at) / RFU C10orf10 (11716521_a_at) / Fold change /veh C10orf10 (11716521_a_at) / RFU C5orf56 (11738089_at) / Fold change /veh C5orf56 (11738089_at) / RFU CYB561 (11721691_x_at) / Fold change /veh CYB561 (11721691_x_at) / RFU ANKRD19P (11752326_a_at) / Fold change /veh ANKRD19P (11752326_a_at) / RFU OR2T12 /// OR2T33 /// OR2T8 (11738714_s_at) / Fold change /veh OR2T12 /// OR2T33 /// OR2T8 (11738714_s_at) / RFU VCAN (11748164_a_at) / Fold change /veh VCAN (11748164_a_at) / RFU JSRP1 (11732532_at) / Fold change /veh JSRP1 (11732532_at) / RFU KRTAP10-11 (11738290_x_at) / Fold change /veh KRTAP10-11 (11738290_x_at) / RFU MYO3A (11730013_a_at) / Fold change /veh MYO3A (11730013_a_at) / RFU EBF3 (11725865_a_at) / Fold change /veh EBF3 (11725865_a_at) / RFU CAMK2N1 (11719241_x_at) / Fold change /veh CAMK2N1 (11719241_x_at) / RFU C5orf56 (11738088_a_at) / Fold change /veh C5orf56 (11738088_a_at) / RFU OLFML3 (11715873_a_at) / Fold change /veh OLFML3 (11715873_a_at) / RFU LOC100653217 /// NTM (11731650_a_at) / Fold change /veh LOC100653217 /// NTM (11731650_a_at) / RFU MAPK11 (11762145_a_at) / Fold change /veh MAPK11 (11762145_a_at) / RFU FIZ1 (11724087_x_at) / Fold change /veh FIZ1 (11724087_x_at) / RFU OASL (11726364_x_at) / Fold change /veh OASL (11726364_x_at) / RFU SOX15 (11748057_x_at) / Fold change /veh SOX15 (11748057_x_at) / RFU CD79A (11719716_a_at) / Fold change /veh CD79A (11719716_a_at) / RFU HIST1H1D (11736915_at) / Fold change /veh HIST1H1D (11736915_at) / RFU CASKIN2 (11723855_a_at) / Fold change /veh CASKIN2 (11723855_a_at) / RFU LOC730098 (11760151_x_at) / Fold change /veh LOC730098 (11760151_x_at) / RFU OR4N2 (11742367_at) / Fold change /veh OR4N2 (11742367_at) / RFU PRRT2 (11749266_a_at) / Fold change /veh PRRT2 (11749266_a_at) / RFU SNX32 (11753110_a_at) / Fold change /veh SNX32 (11753110_a_at) / RFU CDHR5 (11726645_a_at) / Fold change /veh CDHR5 (11726645_a_at) / RFU RCAN1 (11760418_a_at) / Fold change /veh RCAN1 (11760418_a_at) / RFU FAM167A (11723789_a_at) / Fold change /veh FAM167A (11723789_a_at) / RFU FAM26E (11764081_at) / Fold change /veh FAM26E (11764081_at) / RFU ISYNA1 (11749810_s_at) / Fold change /veh ISYNA1 (11749810_s_at) / RFU ACY1 (11761880_at) / Fold change /veh ACY1 (11761880_at) / RFU 11764098_at / Fold change /veh 11764098_at / RFU SAMD14 (11745864_x_at) / Fold change /veh SAMD14 (11745864_x_at) / RFU NPB (11741838_a_at) / Fold change /veh NPB (11741838_a_at) / RFU TMPRSS6 (11731388_a_at) / Fold change /veh TMPRSS6 (11731388_a_at) / RFU KRTAP10-2 (11738614_at) / Fold change /veh KRTAP10-2 (11738614_at) / RFU ARHGAP8 /// PRR5-ARHGAP8 (11727945_x_at) / Fold change /veh ARHGAP8 /// PRR5-ARHGAP8 (11727945_x_at) / RFU KRTAP5-7 /// NADSYN1 (11734609_at) / Fold change /veh KRTAP5-7 /// NADSYN1 (11734609_at) / RFU RASL12 (11751679_a_at) / Fold change /veh RASL12 (11751679_a_at) / RFU CDKN2B (11736163_a_at) / Fold change /veh CDKN2B (11736163_a_at) / RFU PRF1 (11729649_at) / Fold change /veh PRF1 (11729649_at) / RFU, ZNF638 /// ZNF638-IT1 / Fold change vs veh, ZNF638 /// ZNF638-IT1 / RFU, PANK3 / Fold change vs veh, PANK3 / RFU, SH3YL1 / Fold change vs veh, SH3YL1 / RFU, ZEB2 / Fold change vs veh, ZEB2 / RFU, NRIP1 / Fold change vs veh, NRIP1 / RFU, PTTG1IP / Fold change vs veh, PTTG1IP / RFU, CAPN2 / Fold change vs veh, CAPN2 / RFU, MED14 / Fold change vs veh, MED14 / RFU, SNORA58 / Fold change vs veh, SNORA58 / RFU, C1orf63 / Fold change vs veh, C1orf63 / RFU, LRRFIP1 / Fold change vs veh, LRRFIP1 / RFU, NDUFAF7 / Fold change vs veh, NDUFAF7 / RFU, SLC12A2 / Fold change vs veh, SLC12A2 / RFU, IBTK / Fold change vs veh, IBTK / RFU, ESF1 / Fold change vs veh, ESF1 / Fold change vs veh, TMEM50B / RFU, TAOK1 / Fold change vs veh, TAOK1 / RFU, ACBD3 / Fold change vs veh, ACBD3 / RFU, TMA16 / Fold change vs veh, TMA16 / RFU, RWDD3 / Fold change vs veh, RWDD3 / RFU, BCAT1 / Fold change vs veh, BCAT1 / RFU, EDEM3 / Fold change vs veh, EDEM3 / RFU, TMEM33 / Fold change vs veh, TMEM33 / RFU, WDR75 / Fold change vs veh, WDR75 / RFU, AHCTF1 / Fold change vs veh, AHCTF1 / RFU, TFRC / Fold change vs veh, TFRC / RFU, ZDHHC17 / Fold change vs veh, ZDHHC17 / RFU, NOM1 / Fold change vs veh, NOM1 / RFU, ARL8B / Fold change vs veh, ARL8B / RFU, ZBTB11 / Fold change vs veh, ZBTB11 / RFU, TAMM41 / Fold change vs veh, TAMM41 / RFU, KIAA1704 /// LOC100996395 / Fold change vs veh, KIAA1704 /// LOC100996395 / RFU, ING1 / Fold change vs veh, ING1 / RFU, TRMT61B / Fold change vs veh, TRMT61B / RFU, FUBP3 / Fold change vs veh, FUBP3 / RFU, TP53 / Fold change vs veh, TP53 / RFU, TNKS2 / Fold change vs veh, TNKS2 / RFU, ZFP14 / Fold change vs veh, ZFP14 / RFU, ACTR2 / Fold change vs veh, ACTR2 / RFU, PPP3R1 / Fold change vs veh, PPP3R1 / RFU, PIK3R1 / Fold change vs veh, PIK3R1 / RFU, HNRNPA1 / Fold change vs veh, HNRNPA1 / RFU, RNF170 / Fold change vs veh, RNF170 / RFU, ZNF28 / Fold change vs veh, ZNF28 / RFU, RNGTT / Fold change vs veh, RNGTT / RFU, OGT / Fold change vs veh, OGT / RFU, BRD1 / Fold change vs veh, BRD1 / RFU, MARS / Fold change vs veh, MARS / RFU, ZNF655 / Fold change vs veh, ZNF655 / RFU, FAHD1 / Fold change vs veh, FAHD1 / RFU, BDP1 / Fold change vs veh, BDP1 / RFU, LRRCC1 / Fold change vs veh, LRRCC1 / RFU, ARID1A / Fold change vs veh, ARID1A / RFU, ZNF146 / Fold change vs veh, ZNF146 / RFU, ZNF330 / Fold change vs veh, ZNF330 / RFU, GPN3 / Fold change vs veh, GPN3 / RFU, C9orf123 / Fold change vs veh, C9orf123 / RFU, N4BP2L2 / Fold change vs veh, N4BP2L2 / RFU, ARFIP1 / Fold change vs veh, ARFIP1 / RFU, FAM179B / Fold change vs veh, FAM179B / RFU, BCL10 / Fold change vs veh, BCL10 / RFU, UHRF1BP1L / Fold change vs veh, UHRF1BP1L / RFU, BET1 / Fold change vs veh, BET1 / RFU, CNOT2 / Fold change vs veh, CNOT2 / RFU, ZNF268 / Fold change vs veh, ZNF268 / Fold change vs veh, ZNF507 / RFU, DGCR2 / Fold change vs veh, DGCR2 / RFU, WDSUB1 / Fold change vs veh, WDSUB1 / Fold change vs veh, HSP90B1 /// MIR3652 / RFU, ADSS / Fold change vs veh, ADSS / RFU, GK / Fold change vs veh, GK / RFU, ZNF148 / Fold change vs veh, ZNF148 / RFU, TAF9 / Fold change vs veh, TAF9 / RFU, SLC1A5 / Fold change vs veh, SLC1A5 / RFU, SLMO2 / Fold change vs veh, SLMO2 / RFU, ABCC4 / Fold change vs veh, ABCC4 / RFU, LOC101060439 /// RAP1B / Fold change vs veh, LOC101060439 /// RAP1B / RFU, RFX7 / Fold change vs veh, RFX7 / RFU, GTPBP10 / Fold change vs veh, GTPBP10 / RFU, CNEP1R1 / Fold change vs veh, CNEP1R1 / RFU, BIVM-ERCC5 /// ERCC5 / Fold change vs veh, BIVM-ERCC5 /// ERCC5 / RFU, ILF3 / Fold change vs veh, ILF3 / RFU 11762660_at / Fold change /veh 11762660_at / RFU VCAN (11757783_s_at) / Fold change /veh VCAN (11757783_s_at) / RFU DDX43 (11728927_at) / Fold change /veh DDX43 (11728927_at) / RFU KRT8 (11758188_x_at) / Fold change /veh KRT8 (11758188_x_at) / RFU NKD1 (11759106_at) / Fold change /veh NKD1 (11759106_at) / RFU SRD5A1 (11742802_a_at) / Fold change /veh SRD5A1 (11742802_a_at) / RFU TPSAB1 /// TPSB2 (11721975_s_at) / Fold change /veh TPSAB1 /// TPSB2 (11721975_s_at) / RFU GSTM3 (11746129_a_at) / Fold change /veh GSTM3 (11746129_a_at) / RFU IL23R (11737362_x_at) / Fold change /veh IL23R (11737362_x_at) / RFU TMEM51 (11727254_a_at) / Fold change /veh TMEM51 (11727254_a_at) / RFU PIWIL2 (11732686_x_at) / Fold change /veh PIWIL2 (11732686_x_at) / RFU ORM1 (11744905_x_at) / Fold change /veh ORM1 (11744905_x_at) / RFU CCDC152 (11743942_at) / Fold change /veh CCDC152 (11743942_at) / RFU ECM1 (11717891_a_at) / Fold change /veh ECM1 (11717891_a_at) / RFU IL23R (11748794_a_at) / Fold change /veh IL23R (11748794_a_at) / RFU TNFAIP8L3 (11732012_x_at) / Fold change /veh TNFAIP8L3 (11732012_x_at) / RFU MBOAT4 (11741988_at) / Fold change /veh MBOAT4 (11741988_at) / RFU 11764193_at / Fold change /veh 11764193_at / RFU TMEM53 (11763286_at) / Fold change /veh TMEM53 (11763286_at) / RFU MAGEB2 (11727129_at) / Fold change /veh MAGEB2 (11727129_at) / RFU TMEM200A (11744735_a_at) / Fold change /veh TMEM200A (11744735_a_at) / RFU CCDC152 (11751479_a_at) / Fold change /veh CCDC152 (11751479_a_at) / RFU FAM211A (11726209_a_at) / Fold change /veh FAM211A (11726209_a_at) / RFU RGS16 (11746705_a_at) / Fold change /veh RGS16 (11746705_a_at) / RFU VCAN (11755009_s_at) / Fold change /veh VCAN (11755009_s_at) / RFU RHOB (11743442_s_at) / Fold change /veh RHOB (11743442_s_at) / RFU RGS16 (11720943_a_at) / Fold change /veh RGS16 (11720943_a_at) / RFU RGS16 (11720944_at) / Fold change /veh RGS16 (11720944_at) / RFU, VPS4B / Fold change vs veh, VPS4B / RFU, CREB1 / Fold change vs veh, CREB1 / RFU, DNAJC13 / Fold change vs veh, DNAJC13 / RFU, GNAQ / Fold change vs veh, GNAQ / RFU, CDK5R1 / Fold change vs veh, CDK5R1 / RFU, ZRANB3 / Fold change vs veh, ZRANB3 / RFU, CUL4A / Fold change vs veh, CUL4A / RFU, CCNY / Fold change vs veh, CCNY / RFU, UFL1 / Fold change vs veh, UFL1 / RFU, COG3 / Fold change vs veh, COG3 / RFU, DIAPH2 / Fold change vs veh, DIAPH2 / RFU, SKA2 / Fold change vs veh, SKA2 / RFU, AFF3 / Fold change vs veh, AFF3 / RFU, LMF1 / Fold change vs veh, LMF1 / RFU, IPO11 / Fold change vs veh, IPO11 / RFU, DFFB / Fold change vs veh, DFFB / RFU, FOXP1 / Fold change vs veh, FOXP1 / RFU, CARD8 / Fold change vs veh, CARD8 / RFU, STRN3 / Fold change vs veh, STRN3 / RFU, ADK / Fold change vs veh, ADK / RFU, RASSF2 / Fold change vs veh, RASSF2 / RFU, WIPF1 / Fold change vs veh, WIPF1 / RFU, LARP1B / Fold change vs veh, LARP1B / RFU, RASA1 / Fold change vs veh, RASA1 / RFU, RB1 / Fold change vs veh, RB1 / RFU, PPFIA1 / Fold change vs veh, PPFIA1 / RFU, MAT2A / Fold change vs veh, MAT2A / RFU, CCT5 / Fold change vs veh, CCT5 / RFU, WDR92 / Fold change vs veh, WDR92 / RFU, CUX1 / Fold change vs veh, CUX1 / RFU, TTC7A / Fold change vs veh, TTC7A / RFU, TMEM135 / Fold change vs veh, TMEM135 / RFU, DEPTOR / Fold change vs veh, DEPTOR / RFU, CPM / Fold change vs veh, CPM / RFU, DNAJB6 / Fold change vs veh, DNAJB6 / RFU, CACNA2D3 / Fold change vs veh, CACNA2D3 / RFU, DTX4 / Fold change vs veh, DTX4 / RFU, TFCP2 / Fold change vs veh, TFCP2 / RFU, GMCL1 /// GMCL1P1 / Fold change vs veh, GMCL1 /// GMCL1P1 / RFU, AEBP2 / Fold change vs veh, AEBP2 / RFU, SNHG1 /// SNORD22 /// SNORD25 /// SNORD26 /// SNORD27 /// SNORD28 /// SNORD29 /// SNORD31 / Fold change vs veh, SNHG1 /// SNORD22 /// SNORD25 /// SNORD26 /// SNORD27 /// SNORD28 /// SNORD29 /// SNORD31 / Fold change (Aza/veh), C12orf56 (ProbeSet 11735607_a_at) / Fold change (ACY-1035/veh), C12orf56 (ProbeSet 11735607_a_at) / Fold change (Aza/veh), FGFR1OP (ProbeSet 11751329_s_at) / Fold change (ACY-1035/veh), FGFR1OP (ProbeSet 11751329_s_at) / Fold change (Aza/veh), VPS36 (ProbeSet 11739960_a_at) / Fold change (ACY-1035/veh), VPS36 (ProbeSet 11739960_a_at) / RFU SYPL1 (11715823_x_at) / Fold change /veh SYPL1 (11715823_x_at) / RFU IGFBP7 (11715501_s_at) / Fold change /veh IGFBP7 (11715501_s_at) / RFU REEP3 (11722064_at) / Fold change /veh REEP3 (11722064_at) / RFU IGLL1 (11728026_x_at) / Fold change /veh IGLL1 (11728026_x_at): dose or concentration left out as unconfirmed. The settings on record: ProbeSet 11717914_a_at; LIST B.

Regarding `Nc1ccc(-c2cccs2)cc1NC(=O)c1ccc2c(c1)cc(C1CC1)n2CCN1CCOCC1` [ACY-1035], the “RFU, BIVM-ERCC5 /// ERCC5” value stood at 177.23 RFU.

The values above are taken from article PMC5218480 (PLoS ONE, 2017).
